Here are results for two compounds from patent publication US6833489B1, “Assays for modulators of prolyl-4-hydroxylase” (Wisconsin Alumni Research Foundation, priority 1999, dated 2004).

In the test the test system is C. elegans wild-type, dpy-18(ok162) or phy-2(ok177). Briefly: Exposure of adult hermaphrodites to inhibitors, lethality of progeny. The format is in vivo, Caenorhabditis elegans. As to conditions: regardless of genotype (wild-type. Here is the method:
All wild-type C. elegans were from an N2 Bristol strain. Worms were cultured at 20° C. under standard conditions unless otherwise noted (J. E. Sulston and J. Hodgkin, Methods. In The Nematode Caenorhabditis elegans, pp. 587-606, 1988). LG II:unc-4(e120) was used as a marker for transgenic assays. LG III:dpy-18(ok162) is a deletion mutation isolated specifically as a knock-out of the prolyl 4-hydroxylase on chromosome III. […] 11 alleles (mutations in the dpy-18 gene) are known—dpy-18: e346, e364, e499, e1096, e1270, e1862, h662, s361, s1304, s1305, s1306. LG IV:unc-22(e66) is a mutation that can be used to recognize chromosome IV, and poh-1(ok-177) is a deletion mutation isolated specifically as a knock-out of the prolyl 4-hydroxylase gene on chromosome IV.
Small molecules that inhibit protein function can be used to confirm and extend results from genetic experiments. We tested two known prolyl 4-hydroxylase inhibitors for their effects on C. elegans. […] Both inhibitors limit prolyl 4-hydroxylase activity in cells, where their esters are hydrolyzed to form competitors of α-ketoglutarate. We also tested Inhibitor III (which is similar in structure to Inhibitor II) and Inhibitor IV (which is similar in structure to Inhibitor I). Neither Inhibitor III nor […] is known to limit prolyl 4-hydroxylase activity in cells. […]

Consider `CCOC(=O)c1ccnc(C(=O)OCC)c1` [Inhibitor I, 2,4-diethylpyridine dicarboxylate], for which the lethality of progeny entry (high level 2.7 μM, FIG. 2A) is “all progeny died”.

For the compound `COC(=O)CNC(=O)C(=O)OC` [Inhibitor II, dimethyloxalylglycine], the lethality of progeny result (high level 1.3 μM, FIG. 2B) is given as “all progeny died”.
